{
  "source": "paper PMC4105438",
  "about": "“Novel Benzoxazine-Based Aglycones Block Glucose Uptake In Vivo by Inhibiting Glycosidases” (PLoS ONE, 2014)",
  "key": {"α-Glucosidase": {"target": "T1, α-Glucosidase (Saccharomyces cerevisiae, UniProt P53341)", "T1 construct": "purchased SRL, Mumbai (India)", "T1 sequence (P53341 whole entry)": "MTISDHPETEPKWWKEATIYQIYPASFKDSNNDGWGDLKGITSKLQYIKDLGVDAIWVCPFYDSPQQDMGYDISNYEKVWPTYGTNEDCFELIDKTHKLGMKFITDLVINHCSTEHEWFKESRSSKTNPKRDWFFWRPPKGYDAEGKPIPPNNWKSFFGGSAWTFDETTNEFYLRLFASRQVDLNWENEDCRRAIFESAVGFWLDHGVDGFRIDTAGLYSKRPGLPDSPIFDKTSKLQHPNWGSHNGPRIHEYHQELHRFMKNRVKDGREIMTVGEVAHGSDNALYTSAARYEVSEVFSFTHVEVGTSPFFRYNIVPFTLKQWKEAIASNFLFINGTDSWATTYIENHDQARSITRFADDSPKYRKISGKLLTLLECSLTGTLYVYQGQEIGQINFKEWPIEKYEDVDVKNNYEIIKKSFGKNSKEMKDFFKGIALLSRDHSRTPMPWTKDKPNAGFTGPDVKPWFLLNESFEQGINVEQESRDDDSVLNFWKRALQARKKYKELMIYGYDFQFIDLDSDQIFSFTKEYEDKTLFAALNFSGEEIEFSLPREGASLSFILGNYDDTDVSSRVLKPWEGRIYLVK", "test": "biochemical", "settings": "0–100 µM, pre-incubation 10 min 37°C, pH 6.9; NS = not significant", "procedure": "(§1) Porcine pancreatic α-Amylase and Yeast α-Glucosidase were purchased from SRL, Mumbai (India). Glucose oxidase (GOD POD) kit was purchased from Piramal HealthCare Ltd, Mumbai (India). All other chemicals used were of analytical grade and purchased from Sigma Aldrich, St. Louis (USA) and SRL, Mumbai (India). All IR spectra were obtained in KBr disc on a Shimadzu FT-IR 157 Spectrometer. ^1H and ^13C NMR spectra were recorded on a Bruker WH-200 (400 MZ) spectrometer in CDCl3 or DMSO-d6 as solvent, using TMS as an internal standard and chemical shifts are expressed as ppm. Mass spectra were determined on a Shimadzu LC-MS. The elemental analyses were carried out using an Elemental Vario Cube CHNS rapid Analyzer. The progress of the reaction was monitored by TLC pre-coated silica gel G plates.\nThe α-glucosidase inhibitory activities of synthesized compounds were evaluated using the method developed by Tsujii et al.. Briefly, α-glucosidase was dissolved in phosphate buffer (50 mM, pH 6.9) and pre-treated with various concentrations of 1,3-benzoxazine derivatives (0–100 µM) independently for 10 min at 37°C. The reaction was initiated by the addition of 50 µL of 5 mM p-nitrophenyl- α -D-glucopyranoside solution in phosphate buffer (50 mM, pH 6.9). The enzyme reaction was carried out at 37°C for 30 min. The reaction was terminated by the addition of Na2CO3 (1 M). The enzymatic activity of α-glucosidase was quantified by measuring the absorption at 405 nm using a Varioskan multimode plate reader (Thermo Scientifics, USA). The inhibitory effect of compounds was defined as inhibitory activity (%) = (Abs Control – Abs Compound treated)/Abs Control ×100. Concentration-response assays were used to determine the potency (IC50) of 1,3-benzoxazine derivatives based on the logistic analysis of the concentration-response curve using Microsoft Excel."}, "[1]": {"target": "T2, Porcine pancreatic α-amylase (Sus scrofa, UniProt P00690)", "T2 construct": "purchased SRL, Mumbai (India)", "T2 sequence (P00690 16-511)": "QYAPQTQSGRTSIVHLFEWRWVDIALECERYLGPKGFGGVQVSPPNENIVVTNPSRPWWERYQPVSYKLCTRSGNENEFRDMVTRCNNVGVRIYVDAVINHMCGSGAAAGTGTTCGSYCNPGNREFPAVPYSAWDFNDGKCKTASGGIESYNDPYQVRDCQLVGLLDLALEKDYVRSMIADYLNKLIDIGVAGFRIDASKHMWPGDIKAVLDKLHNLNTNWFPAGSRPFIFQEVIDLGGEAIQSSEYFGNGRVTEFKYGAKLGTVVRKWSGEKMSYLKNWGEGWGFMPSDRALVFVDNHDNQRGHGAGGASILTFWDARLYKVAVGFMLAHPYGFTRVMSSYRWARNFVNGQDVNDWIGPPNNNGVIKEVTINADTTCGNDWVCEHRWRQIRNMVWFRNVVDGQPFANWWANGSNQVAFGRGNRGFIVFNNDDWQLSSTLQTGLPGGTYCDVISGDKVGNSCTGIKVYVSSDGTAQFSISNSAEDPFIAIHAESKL", "test": "α-amylase inhibition assay (starch, DNS reagent)", "type": "biochemical", "settings": "0–100 µM, pre-incubation 10 min 37°C, pH 6.9; NS = not significant", "procedure": "as §1, with “All IR spectra were obtained in KBr disc on a Shimadzu FT-IR 157 Spectrometer. ^1H and ^13C NMR spectra were recorded on a Bruker WH-200 (400 MZ) spectrometer in CDCl3 or DMSO-d6 as solvent, using TMS as an internal standard and chemical shifts are expressed as ppm.” left out\nThe α-amylase inhibition assay was performed according to a previous report. Porcine pancreatic α-amylase (3 units/mL) was dissolved in 0.1 M phosphate buffered saline, pH 6.9. […] The reaction was initiated by adding substrate solution (0.1% starch) to the incubation medium. After 10 min incubation, the reaction was stopped by adding 250 µL dinitrosalicylic (DNS) reagent (1% 3, 5-dinitrosalicylic acid, 0.2% phenol, 0.05% Na2SO3 and 1% NaOH in aqueous solution) to the reaction mixture. The reaction was terminated by keeping the reaction mixture in boiling water bath for 10 min. Thereafter, 250 µL of 40% potassium sodium tartarate solution was added to the mixtures to stabilize the colour. After cooling to room temperature in a cold water bath, the absorbance was recorded at 540 nm using a Varioskan multimode plate reader (Thermo Scientifics, USA). Acrabose was used as positive control. The percentage of inhibition was calculated using Abs Contol – Abs Sample ×100/Abs Control. Where Abs Control was the absorbance without sample, Abs sample was the absorbance of enzyme with compound."}, "[2]": {"test_system": "overnight fasted Wistar rats", "test": "Oral sucrose tolerance test", "type": "in vivo, rat", "settings": "acarbose 3 mg/kg oral, sucrose 3 g/kg, compared to sucrose control", "excerpt": "(§2) Adult Wistar rats weighing 150–180 g were collected from the University Central Animal Facility and housed under a controlled environment. All animal experiments were approved by the Institutional Animal Ethical Committee (Order No : MGZ/2620/2011-12 Dated 31-01-2012; UOM/IAEC/18/2011), Department of Studies in Zoology, University of Mysore, Mysore and were in accordance with the guidelines of the Committee for the Purpose of Control and Supervision of Experiments on Animals (CPCSEA).\n(§3) The experimental animals were randomly divided into 11 groups each consisting of 5 rats. […] Blood was collected from the tail vein to the tubes containing anticoagulant (2.5% trisodium citrate and 1.37% citric acid in the ratio 1∶5; anti-coagulant: blood) at time point 0 (just before sucrose/maltose administration), and subsequently at 30, 60, 90, 120 and 180 min after substrate (sucrose/maltose) administration. Plasma was separated by centrifuging the samples at 2000 rpm for 10 min and stored at −20°C until analysis. Plasma glucose concentration was determined by using the Glucose oxidase (GOD POD) kit according to the manufacturer’s protocol."}, "[3]": {"test_system": "overnight fasted Wistar rats", "test": "Oral maltose tolerance test", "type": "in vivo, rat", "settings": "acarbose 3 mg/kg oral, maltose 3 g/kg, compared to maltose control", "excerpt": "as §2, §3"}, "rat intestinal maltase": {"target": "rat intestinal maltase", "test": "Intestinal α-glucosidase inhibitory assay, maltose as substrate", "type": "biochemical", "settings": "rat intestinal acetone powder, maltose 37 mM, 30 min", "procedure": "Intestinal α-glucosidase activity was determined by measuring the amount of glucose hydrolyzed from maltose or sucrose. Briefly, rat intestinal acetone powder was homogenized in 0.9% saline and the suspension was centrifuged at 10,000 g for 30 min at 4°C and the supernatant obtained was used as enzyme source. […] After the respective incubation period, reaction was terminated by keeping the samples in boiling water bath for 10 min. The concentration of glucose released from the reaction mixtures was determined by using Glucose oxidase (GOD POD) kit according to the manufacturer’s protocol. Results were expressed as percentage inhibition of intestinal maltase/sucrase activity."}},
  "note": "Where “and” joins values, the source holds several entries; their conditions need not be identical. Equal entries are not always repeated.",
  "data": [
    {"compound": "Cc1[nH]c2ccccc2c1C1Nc2ccccc2CO1", "note": "(centres unmarked) [compound 3, 2-(2-methyl-1H-indol-3-yl)-2,4-dihydro-1H-benzo[d][1,3]oxazine]", "values": [
      {"measurement": "IC50", "setting": "α-Glucosidase", "result": "21.6 ± 0.1", "unit": "µM"},
      {"measurement": "IC50", "setting": "[1]", "result": "10.6 ± 0.3", "unit": "µM"}
    ]},
    {"compound": "CCCCc1nc(Cl)c(C2Nc3ccccc3CO2)[nH]1", "note": "(centres unmarked) [compound 6, 2-(2-butyl-4-chloro-1H-imidazol-5-yl)-2,4-dihydro-1H-benzo[d][1,3]oxazine]", "values": [
      {"measurement": "IC50", "setting": "α-Glucosidase", "result": "16 µM and 16.7 µM"},
      {"measurement": "IC50", "setting": "[1]", "result": "18.5 ± 0.1", "unit": "µM"},
      {"measurement": "melting point", "result": "80 to 82", "unit": "°C"}
    ]},
    {"compound": "Cc1ccc2c(c1)COC(c1coc3ccccc3c1=O)N2", "note": "(centres unmarked) [compound 13, 3-(6-methyl-2,4-dihydro-1H-benzo[d][1,3]oxazin-2-yl)-4H-chromen-4-one]", "values": [
      {"measurement": "IC50", "setting": "α-Glucosidase", "result": "> 100", "unit": "µM"},
      {"measurement": "IC50", "setting": "[1]", "result": "51 ± 0.3", "unit": "µM"},
      {"measurement": "melting point", "result": "202 to 204", "unit": "°C"}
    ]},
    {"compound": "O=c1c(C2Nc3ccccc3CO2)coc2ccccc12", "note": "(centres unmarked) [compound 5, 3-(2,4-dihydro-1H-benzo[d][1,3]oxazin-2-yl)-4H-chromen-4-one]", "values": [
      {"measurement": "IC50", "setting": "α-Glucosidase", "result": "> 100", "unit": "µM"},
      {"measurement": "IC50", "setting": "[1]", "result": "23.3 ± 0.5", "unit": "µM"},
      {"measurement": "melting point", "result": "142 to 144", "unit": "°C"}
    ]},
    {"compound": "C[C@H]1O[C@H](O[C@H]2[C@H](O)[C@@H](O)[C@@H](O[C@H]3[C@H](O)[C@@H](O)C(O)O[C@@H]3CO)O[C@@H]2CO)[C@H](O)[C@@H](O)[C@@H]1N[C@H]1C=C(CO)[C@@H](O)[C@H](O)[C@H]1O", "note": "(some centres unmarked) [Acarbose, reference compound]", "values": [
      {"measurement": "plasma glucose concentration", "setting": "[2]", "result": "only significant at 60 and 90 min time points"},
      {"measurement": "plasma glucose concentration", "setting": "[3]", "result": "significantly reduced the plasma glucose concentration at 30, 60, 90 min time intervals"},
      {"measurement": "IC50", "setting": "rat intestinal maltase", "result": 3.5, "unit": "µM"}
    ]},
    {"compound": "Cc1ccc2c(c1)COC(c1c(C)[nH]c3ccccc13)N2", "note": "(centres unmarked) [compound 11, 6-methyl-2-(2-methyl-1H-indol-3-yl)-2,4-dihydro-1H-benzo[d][1,3]oxazine]", "values": [
      {"measurement": "IC50", "setting": "α-Glucosidase", "result": "23.8 ± 0.1", "unit": "µM"},
      {"measurement": "IC50", "setting": "[1]", "result": "> 100", "unit": "µM"}
    ]},
    {"compound": "Clc1ccc2c(c1)COC(c1c(-c3ccccc3)[nH]c3ccccc13)N2", "note": "(centres unmarked) [compound 9, 6-chloro-2-(2-phenyl-1H-indol-3-yl)-2,4-dihydro-1H-benzo[d][1,3]oxazine]", "values": [
      {"measurement": "IC50", "setting": "α-Glucosidase", "result": "27.8 ± 0.2", "unit": "µM"},
      {"measurement": "IC50", "setting": "[1]", "result": "22.2 ± 0.1", "unit": "µM"}
    ]},
    {"compound": "c1ccc2c(c1)COC(c1c[nH]c3ccccc13)N2", "note": "(centres unmarked) [compound 2, 2-(1H-indol-3-yl)-2,4-dihydro-1H-benzo[d][1,3]oxazine]", "values": [
      {"measurement": "IC50", "setting": "α-Glucosidase", "result": "32 ± 0.2", "unit": "µM"},
      {"measurement": "IC50", "setting": "[1]", "result": "59.2 ± 1", "unit": "µM"}
    ]},
    {"compound": "Oc1ccc(C2Nc3ccccc3CO2)cc1", "note": "(centres unmarked) [compound 1, 4-(2,4-dihydro-1H-benzo[d][1,3]oxazin-2-yl)phenol]", "values": [
      {"measurement": "IC50", "setting": "α-Glucosidase", "result": "17.1 ± 0.1", "unit": "µM"},
      {"measurement": "IC50", "setting": "[1]", "result": "20.4 ± 0.2", "unit": "µM"},
      {"measurement": "melting point", "result": "160 to 162", "unit": "°C"}
    ]},
    {"compound": "N#Cc1ccccc1-c1ccc(Cn2cc(C3Nc4ccccc4CO3)c3ccccc32)cc1", "note": "(centres unmarked) [compound 4]", "values": [
      {"measurement": "IC50", "setting": "α-Glucosidase", "result": "> 100", "unit": "µM"},
      {"measurement": "IC50", "setting": "[1]", "result": "> 100", "unit": "µM"}
    ]},
    {"compound": "Clc1ccc2c(c1)NC(c1c[nH]c3ccccc13)OC2", "note": "(centres unmarked) [compound 8, 7-chloro-2-(1H-indol-3-yl)-2,4-dihydro-1H-benzo[d][1,3]oxazine]", "values": [
      {"measurement": "IC50", "setting": "α-Glucosidase", "result": "27.7 ± 1", "unit": "µM"},
      {"measurement": "IC50", "setting": "[1]", "result": "26.4 ± 0.5", "unit": "µM"}
    ]},
    {"compound": "Cc1ccc2c(c1)COC(c1c(-c3ccccc3)[nH]c3ccccc13)N2", "note": "(centres unmarked) [compound 12, 6-methyl-2-(2-phenyl-1H-indol-3-yl)-2,4-dihydro-1H-benzo[d][1,3]oxazine]", "values": [
      {"measurement": "IC50", "setting": "α-Glucosidase", "result": "20.5 ± 0.5", "unit": "µM"},
      {"measurement": "IC50", "setting": "[1]", "result": "17.6 ± 0.3", "unit": "µM"}
    ]},
    {"compound": "O=c1c(C2Nc3ccc(Cl)cc3CO2)coc2ccccc12", "note": "(centres unmarked) [compound 10, 3-(6-chloro-2,4-dihydro-1H-benzo[d][1,3]oxazin-2-yl)-4H-chromen-4-one]", "values": [
      {"measurement": "IC50", "setting": "α-Glucosidase", "result": "31.9 ± 0.8", "unit": "µM"},
      {"measurement": "IC50", "setting": "[1]", "result": "> 100", "unit": "µM"},
      {"measurement": "melting point", "result": "141 to 143", "unit": "°C"}
    ]}
  ]
}
